A short description of data set [1]: Cytotoxicity against African green monkey Vero cells assessed as reduction in cell viability.
The test system of data set [2] is Plasmodium falciparum. Briefly: Antimalarial activity against PYR-resistant Plasmodium falciparum V1/S expressing DHFR N51I/C59R/S108N/I164L quadruple mutant by [3H]-hypoxanthine incorporation assay.
For data set [3], the system named is Plasmodium falciparum. Description: Antimalarial activity against PYR-sensitive Plasmodium falciparum TM4/8.2 expressing wild type DHFR by [3H]-hypoxanthine incorporation assay. As to conditions: TM4/8.2, 3 h.
A short description of data set [4]: Inhibition of Plasmodium falciparum DHFR N51I/C59R/S108N/I164L quadruple mutant.
A short description of data set [5]: in vitro. As to conditions: human, liver microsomes. On the technique in general: Microsomes from liver hold many membrane-bound enzymes, among them those of drug oxidation.
Description: Intrinsic clearance in human liver microsomes incubated up to 60 mins in presence of NADPH by LC-MS/MS analysis
Data set [6] in a line: in vitro. As to conditions: rat, liver microsomes.
Description: Intrinsic clearance in rat liver microsomes incubated up to 60 mins in presence of NADPH by LC-MS/MS analysis
The nature of data set [7]: Selectivity index, ratio of IC50 for cytotoxicity against African green monkey Vero cells to IC50 for antimalarial activity against PYR-resistant Plasmodium falciparum V1/S expressing DHFR N51I/C59R/S108N/I164L quadruple mutant.
A short description of data set [8]: Inhibition of wild type Plasmodium falciparum DHFR N51I/C59R/S108N/I164L quadruple mutant expressed in Escherichia coli BL21(DE3) pLysS cells assessed as inhibition constant using DHF as substrate measured for 80 sec in presence of NADPH.
The nature of data set [9]: Cytotoxicity against African green monkey Vero cells assessed as reduction in cell viability incubated for 72 hrs by sulforhodamine B assay. (In SRB staining, fixed cells bind dye roughly in proportion to their protein.)
In data set [10] the test system is Plasmodium falciparum. Description: Antimalarial activity against PYR-sensitive Plasmodium falciparum TM4/8.2 expressing wild type DHFR incubated for 24 hrs by [3H]-hypoxanthine incorporation assay.
Another data set in a line: physchem. As to conditions: octanol/phosphate buffer, pH 7.4.
Data set [11] deals with Bifunctional dihydrofolate reductase-thymidylate synthase (Plasmodium falciparum K1, UniProt P13922). Description: Inhibition of wild type Plasmodium falciparum DHFR expressed in Escherichia coli BL21(DE3) pLysS cells assessed as inhibition constant using DHF as substrate measured for 80 sec in presence of NADPH.
Bifunctional dihydrofolate reductase-thymidylate synthase, sequence (P13922 whole entry): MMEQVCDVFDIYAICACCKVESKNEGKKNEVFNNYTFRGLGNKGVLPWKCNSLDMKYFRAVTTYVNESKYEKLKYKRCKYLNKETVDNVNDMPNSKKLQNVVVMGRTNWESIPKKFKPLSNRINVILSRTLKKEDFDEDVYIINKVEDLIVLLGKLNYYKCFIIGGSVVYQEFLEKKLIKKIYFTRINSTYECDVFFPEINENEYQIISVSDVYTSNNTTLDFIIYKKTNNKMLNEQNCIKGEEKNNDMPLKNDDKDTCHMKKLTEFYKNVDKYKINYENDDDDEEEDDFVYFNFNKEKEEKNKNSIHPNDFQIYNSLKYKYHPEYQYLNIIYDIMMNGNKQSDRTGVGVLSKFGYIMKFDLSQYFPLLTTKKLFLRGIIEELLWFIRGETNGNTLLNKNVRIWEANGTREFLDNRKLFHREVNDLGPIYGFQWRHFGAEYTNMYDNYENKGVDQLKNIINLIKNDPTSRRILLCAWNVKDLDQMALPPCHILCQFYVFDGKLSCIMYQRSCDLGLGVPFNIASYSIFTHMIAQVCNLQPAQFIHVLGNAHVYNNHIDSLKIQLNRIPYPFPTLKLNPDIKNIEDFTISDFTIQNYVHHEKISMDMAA
Data set [12] deals with Plasmodium falciparum. Briefly: Antimalarial activity against PYR-resistant Plasmodium falciparum V1/S expressing DHFR N51I/C59R/S108N/I164L quadruple mutant infected in human erythrocytes incubated for 24 hrs by [3H]-hypoxanthine incorporation assay.
The next data set has as its target T1, Dihydrofolate reductase (Homo sapiens, UniProt P00374).
T1 sequence (P00374 whole entry): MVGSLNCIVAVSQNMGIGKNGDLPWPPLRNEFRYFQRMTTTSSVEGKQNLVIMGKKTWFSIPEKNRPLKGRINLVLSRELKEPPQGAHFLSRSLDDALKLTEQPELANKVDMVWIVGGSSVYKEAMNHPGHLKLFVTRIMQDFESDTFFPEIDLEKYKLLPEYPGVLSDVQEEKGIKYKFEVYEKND
Description: Inhibition of human DHFR expressed in Escherichia coli BL21(DE3) pLysS cells assessed as inhibition constant using DHF as substrate measured for 80 sec in presence of NADPH.

Bounds are passed on as bounds.

Description for physchem: Lipophilicity, log D of the compound in octanol/phosphate buffer at pH 7.4 at 100 uM incubated for 2 hrs by HPLC analysis

As to `CCc1nc(N)nc(N)c1OCCCOc1ccccc1CCC(=O)O`, the IC50 (as a rule, the concentration at which inhibition is half-maximal) is > 100000 nM in data set [1], 56 nM in the data set with Plasmodium falciparum [2] and 5 nM in the data set with Plasmodium falciparum [3]. For the same compound, the Ki (as a rule, the equilibrium dissociation constant of an inhibitor or competing ligand from its target) in data set [4] is 0.54 nM. Besides, the microsomal CLint at 1 h in “in vitro [5]” and in “in vitro [6]” was < 3 µL/min/mg in each case.
Regarding `CCOC(=O)c1ccc(-c2ccc(OCCCCOc3c(N)nc(N)nc3CC)cc2)cc1`, the selectivity ratio in data set [7] was > 2.2. In addition, the Ki was 0.99 nM in data set [8], 0.67 nM in data set [11] and > 250000 nM at Dihydrofolate reductase. The IC50 at 72 h in [9] is > 50000 nM. The IC50 was 225 nM with Plasmodium falciparum [10] and 22800 nM in the data set on Plasmodium falciparum [12]. In addition, the logD (usually lipophilicity at a set pH, counting ionised and neutral species) at 2 h, 100 µM in the data set “physchem” is > 2.5.

For the origin of these results see ChEMBL document CHEMBL5584290, “Novel flexible biphenyl PfDHFR inhibitors with improved antimalarial activity” (RSC Med Chem, 2024).
